Test results from ChEMBL document CHEMBL5260849, “Current advances in Vibrio harveyi quorum sensing as drug discovery targets” (Eur J Med Chem, 2020).
Converted amounts (≈) assume the structure as drawn.

Assays:
[1] = Inhibition of quorum-sensing system in Vibrio harveyi assessed as inhibition of bioluminescence at 20 uM by bioluminescence assay
Vibrio harveyi [2] = test: Antibacterial activity against Vibrio harveyi infected […] franciscana assessed as increase in survival rate at 20 uM and measured after 60 hrs by light microscopy; type: functional
Vibrio harveyi [3] = test: Antimicrobial activity against Vibrio harveyi BB152 assessed as decrease in swimming motility at 200 ug/ml incubated for 15 hrs by agar plate reader analysis; type: functional; parameters: scale not given: the % may be the effect or the level left; conditions: dose 200 µg/ml
Vibrio harveyi [4] = test: Inhibition of biofilm formation in Vibrio harveyi BB152 at 200 ug/ml for 24 hrs by crystal violet assay; type: functional
Vibrio harveyi [5] = test: Antimicrobial activity against Vibrio harveyi MM30 assessed as decrease in swimming motility at 200 ug/ml incubated for 15 hrs by agar plate reader analysis; type: functional; parameters: scale not given: the % may be the effect or the level left; conditions: dose 200 µg/ml
[6] = Inhibition of quorum-sensing system in Vibrio harveyi BB170 assessed as inhibition of QS-mediated bioluminescence at 0.02 to 200 uM incubated for 18 hrs by Luminescence assay; conditions: dose 0.02-200 µM
Vibrio harveyi [7] = test: Antimicrobial activity against Vibrio harveyi BB120 assessed as decrease in swimming motility at 200 ug/ml incubated for 15 hrs by agar plate reader analysis; type: functional; parameters: scale not given: the % may be the effect or the level left; conditions: dose 200 µg/ml
[8] = Inhibition of quorum-sensing system in Vibrio harveyi BB152 assessed as inhibition of QS-mediated bioluminescence at 0.02 to 200 uM incubated for 18 hrs by Luminescence assay; conditions: dose 0.02-200 µM
Vibrio harveyi [9] = test: Inhibition of biofilm formation in Vibrio harveyi MM77 assessed as inhibition of exopolysaccharides production at 200 uM incubated for 24 hrs by Fluorescence assay; type: functional
[10] = Inhibition of quorum-sensing system in Vibrio harveyi MM77 assessed as inhibition of QS-mediated bioluminescence at 0.02 to 200 uM incubated for 18 hrs by Luminescence assay; conditions: dose 0.02-200 µM
Vibrio harveyi [11] = test: Antibiofilm activity against Vibrio harveyi BB170 assessed as inhibition of biofilm formation at 200 uM by Crystal violet biofilm assay; type: functional
[12] = Inhibition of quorum sensing system in Vibrio harveyi MTCC 3438 assessed fold decrease in luxP expression at 250 ug/ml by qPCR assay; conditions: dose 250.0 µg/ml
Vibrio harveyi [13] = test: Antibacterial activity against Vibrio harveyi MTCC 3438 assessed as reduction in cell surface hydrophobicity at 250 ug/ml for 10 mins by BATH assay; type: functional; conditions: MTCC 3438, 10 min
[14] = Inhibition of quorum sensing system in Vibrio harveyi MTCC 3438 assessed fold decrease in luxR expression at 250 ug/ml by qPCR assay; conditions: dose 250.0 µg/ml
[15] = Inhibition of quorum sensing system in Vibrio harveyi MTCC 3438 assessed fold decrease in luxQ expression at 250 ug/ml by qPCR assay; conditions: dose 250.0 µg/ml
Vibrio harveyi [16] = test: Antibiofilm activity against Vibrio harveyi MTCC 3438 assessed as inhibition of biofilm formation at 250 ug/ml for 16 hrs by crystal violet staining based spectrophotometric assay; type: functional
[17] = Inhibition of quorum sensing system in Vibrio harveyi MTCC 3438 assessed fold decrease in luxO expression at 250 ug/ml by qPCR assay; conditions: dose 250.0 µg/ml
[18] = Inhibition of quorum sensing system in Vibrio harveyi MTCC 3438 assessed fold decrease in luxS expression at 250 ug/ml by qPCR assay; conditions: dose 250.0 µg/ml
Vibrio harveyi [19] = test: Inhibition of biofilm formation in Vibrio harveyi MTCC 3438 assessed as reduction in exopolysaccharides production at 250 ug/ml for 24 hrs by spectrophotometric assay; type: functional
Vibrio harveyi [20] = test: Antibacterial activity against Vibrio harveyi MTCC 3438 infected Litopenaeus vannamei larvae assessed as increase in survival rate at 250 ug/ml and measured upto 96 hrs; type: functional
Vibrio harveyi [21] = test: Antibacterial activity against Vibrio harveyi MTCC 3438 assessed as bacterial growth inhibition incubated for 24 hrs by broth microdilution assay; type: functional

Q: For `O=S(=O)(c1ccc(Br)s1)n1cccn1`, which inhibition [1] is on record?
A: 100%

Q: What about the survival at 20 µM (Vibrio harveyi [2]) of the same compound?
A: 85.5%

Q: For `CCCCCCC(C)(C)c1cc(O)c2c(c1)OC(C)(C)[C@@H]1CC=C(CO)C[C@@H]21`, which Activity (Vibrio harveyi [3]) is on record?
A: 85%

Q: And the inhibition at 200 µg/mL (Vibrio harveyi [4])?
A: 80%

Q: And the Activity (Vibrio harveyi [5])?
A: 95%

Q: And the inhibition [6]?
A: 85%

Q: And the Activity (Vibrio harveyi [7])?
A: 80%

Q: What about the inhibition [8] of the same compound?
A: 98%

Q: What about the inhibition at 200 µM (Vibrio harveyi [9]) of the same compound?
A: 75%

Q: What about the inhibition [10] of the same compound?
A: 95%

Q: For `CC(=O)C(=O)C(F)CO` (stereo unspecified), which inhibition at 200 µM (Vibrio harveyi [11]) is on record?
A: 90%

Q: Which fold change (FC) [12] does the source give for `Cc1cc(C(C)(C)C)c(O)c(C(C)(C)C)c1` [BUTYLATED HYDROXYTOLUENE] here?
A: 0.7

Q: What about the inhibition at 250 µg/mL (Vibrio harveyi [13]) of the same compound?
A: 82%

Q: And the fold change (FC) [14]?
A: 1.9

Q: What about the fold change (FC) [15] of the same compound?
A: 0.5

Q: What about the inhibition at 250 µg/mL (Vibrio harveyi [16]) of the same compound?
A: 80%

Q: And the fold change (FC) [17]?
A: 0.1

Q: What about the fold change (FC) [18] of the same compound?
A: 0.9

Q: And the inhibition at 250 µg/mL (Vibrio harveyi [19])?
A: 65%

Q: And the survival at 250 µg/mL (Vibrio harveyi [20])?
A: 75%

Q: For `O=C(O)[C@@H]1[C@H](C(=O)O)[C@@H]2C=C[C@H]1C2`, which MIC (Vibrio harveyi [21]) is on record?
A: 8 µg/mL (≈ 43.9 µM)
